US7964558B2, “Therapeutic applications for C-peptide” (La Jolla, priority 2003, dated 2011)

Tests used:
diabetic BB/Wor rats [1] = assay: Nerve conduction velocity in motor and sensory (sciatic-tibial) nerves of diabetic BB/Wor rats; assay type: in vivo, rat
Description: Further technical details can be found in Sima et al., Diabetologia (2001) 44: 889-897.
(§1) Prediabetic male BB/Wor rats were used. Ten rats were used in each group, where the animals were closely age-matched. They were maintained in metabolic cages with free access to water and rat chow. Bodyweight, urine volume and glucosuria were monitored daily to ascertain onset of diabetes. Immediately after the onset of diabetes, administration of C-peptides was commenced in either a single dose/24 hours, three doses/24 hours or as a continuous infusion by osmopump.
(§2) The single dose given was 75 nmol/kg and the three doses given were each 25 nmol/kg. The continuous infusion gave a dose of 75 nmol/kg over a 24 hour period.
Synthetic rat C-peptide II with a purity of more than 98% by HPLC was used (Genosys, Cambridge, UK) dissolved in saline (12 mg/ml). Control rats were given a dose of saline instead of C-peptide.
The nerve conduction velocity in motor and sensory nerves and Na^+K^+ATPase levels in the rats were measured. Baseline nerve conduction velocity was measured within 24 hours of onset of diabetes. […]
(§3) Statistical analysis. The results are presented as means±SE and the significance of differences was calculated by analysis of variance (ANOVA). Group differences were assessed by post hoc analysis using the Student-Newman-Keul test. […]

Na+K+ATPase = Na+K+ATPase activity in the sciatic nerve of diabetic BB/Wor rats; assay type: in vivo, rat; conditions: once daily dose 75 nmol/kg, 8 weeks, sciatic nerve (FIG. 4)
Description: as §1, §2
(§4) Synthetic rat C-peptide II with a purity of more than 98% by HPLC was used (Genosys, Cambridge, UK) dissolved in saline (12 mg/ml). Control rats were given a dose of saline instead of C-peptide. […]
For Na^+/K^+-ATPase activity, nerve samples were homogenized in 2 ml of 0.2 mol/l sucrose and 0.02 mol/l TRIS-HCl at pH 7.5. […] Na^+/K^+-ATPase activity was defined as the difference before and after ouabain and was expressed as μmol ADP formed per gram of wet weight per hour.
as §3

diabetic BB/Wor rats [2] = assay: Morphometric and teased fibre assessment of sural nerve in diabetic BB/Wor rats; assay type: in vivo, rat; conditions: once daily dose 75 nmol/kg, 8 weeks, compared to diabetic rats (FIG. 5)
Description: as §1, §2, §4
Teased fibre examinations. A mean of 168±4 myelinated fibres were teased from each sural nerve and scored for specific changes. […] Changes were expressed as percentages of total fibres.
as §3

[3] = in humans; cited from earlier work
[4] = dose injected into a rat; expected; cited from earlier work

C-peptide: Synthetic rat C-peptide II, purity more than 98% by HPLC (Genosys), dissolved in saline; used in Example 1 (EVEDPQVGQVELGAGPGAGSEQTLALEVARQ; Ins Rodent C-peptide)
effectiveness of once daily dose compared with other dosing regimens (diabetic BB/Wor rats [1]; nerve conduction velocity and Na+K+ATPase activity, 75 nmol/kg once daily vs 3 x 25 nmol/kg daily or 75 nmol/kg/24 h continuous infusion by osmopump): as effective as three daily dose or a continuous infusion | nerve conduction velocity (diabetic BB/Wor rats [1]; once daily dose 75 nmol/kg, 8 weeks, diabetic BB/Wor rats, motor and sensory nerves (FIGS. 2, 3)): clearly and sufficiently improved | Na+K+ATPase activity (Na+K+ATPase): clearly and sufficiently improved | morphology of cells (morphometric data) (diabetic BB/Wor rats [2]): improved morphology | half-life [3]: approximately 30 minutes | time to disappear entirely from circulation [4]: 2 to 3 h
